Experimental data reported in US20020132832A1, “Treatment of erectile dysfunction” (priority 2001, published 2002).

Columns and labels:
erectile tissue = test: Erectile response ICP/MAP to NO donor and Rho-kinase inhibitor injected into erectile tissue; format: in vivo; conditions: small/low dose injected directly into erectile tissue
corpus cavernosum [1] = test: Ganglionic (major pelvic ganglion) stimulated increase in CCP/MAP in anesthetized rat; format: in vivo; conditions: for effect on baseline CCP or MAP: no stimulation; for CCP/MAP at 5 V (mean ± s.e.m.): n=4
Procedure: (§1) Using an in vivo rat model, the effect of Rho-kinase inhibition on corpus cavernosum (CCP) and mean arterial pressure (MAP) was examined. The left carotid artery and right corpus cavernosum of the rat penis were cannulated for continuous monitoring of MAP and CCP respectively as described by Mills, T., et al., (Biol. Reprod. 59, 1413-1418, 1998; J. Appl. Physiol., 91: 1269-1273, 2001). Rats were anesthetized with intramuscular ketamine (87 mg/kg body wt) plus xylazine (13 mg/kg) and maintained on supplemental ketamine as needed. Vasoactive drugs were administered through a cannula in the left corpus cavernosum. For experiments measuring voltage-stimulated changes in CCP and MAP, stainless steel bipolar electrodes were positioned on the right major pelvic ganglion. […] All pressure data were collected for analysis using Polyview data-acquisition software.
After initial measurements of CCP and MAP during ganglionic stimulation, rats were treated with L-NNA, L-NAME (200 μg/kg body weight), or saline control, and after 5 min ganglionic stimulation and CCP/MAP measurements were repeated. […] After 5 min, a 5-V stimulation was repeated, and CCP and MAP measurements were recorded.
Rho-kinase inhibition can also overcome muscle contraction due to inhibition of cyclic GMP formation. […] After 5 min, a 5-V stimulation was repeated, and CCP and MAP measurements were recorded.

[2] = test system: isolated rat cavernosal tissue; test: Isolated rat cavernosal strips, relaxation of agonist-induced contraction; format: cell-based; conditions: for effect on relaxation response of cavernosal strips to 1 μM Y-27632: 10 μM incubation
Procedure: Cavernosal strips (3-4 mm long) were prepared by removal of the corpus spongiosum and dorsal vein, and the proximal portion of the corpus cavernosum divided across the midline of the intact penis. Right and left longitudinal strips were mounted in an isolated muscle bath for measurement of contractile force generation. Strips were bathed in physiologic salt solution (130 mM NaCl, 4.7 mM KCl, 1.18 mM KHPO4, 1.17 mM […], 1.6 mM CaCl2-2H2O, 14.9 mM NaHCO3, 5.5 mM dextrose, and 0.03 mM CaNa2 EDTA), at 37° C., and gassed with 95% O2/5% CO2.

corpus cavernosum [3] = test: Erectile response to electrical stimulation of the autonomic ganglion after phosphatase inhibitor injected into corpus cavernosum; format: in vivo; conditions: data not shown
Description: In an embodiment, the target of Rho-kinase is MLC phosphatase (FIG. 2). […] With MLC phosphatase activity inhibited, the resulting high levels of phosphorylated myosin light chain keep the sexual organs in a nonerect state.

corpus cavernosum [4] = test: Intracavernosal injection in anesthetized rat, CCP/MAP without ganglionic stimulation; format: in vivo; set-up: time to plateau of CCP/MAP increase: unit not given here
Procedure: as §1

rat aorta = test: Rat aortic rings, endothelium intact or denuded, PE-induced contraction; format: cell-based
Description: In these experiments, aorta (3 mm rings) were cleaned of adherent connective tissue and hung on stainless steel hooks attached between a force transducer and stationary mount for the measurement of isometric force generation. Endothelium was removed from some vessels by gentle rubbing of the lumen with a steel wire. Aortic rings were then placed in an isolated chamber, bathed in physiologic salt solution (mmol/L: 130 NaCl, 4.7 KCl, 1.18 KHPO4, 1.17 MgSO4, 1.6 CaCl2-2H2O, 14.9 NaHCO3, 5.5 dextrose, and 0.03 CaNa2EDTA; 37° C.) and gassed with 95% O2/5%CO2 Rings were set at 3 g passive tension and treated with indomethacin (1 μmol/L) to inhibit prostaglandin synthesis. Following a one hour equilibration period, vessels were contracted with phenylephrine (PE) (0.1 μmol/L) and subsequently treated with acetylcholine (1 μmol/L) to test for the presence of endothelium.

cultured cells = conditions: cited from earlier work
cavernous sinuses = test: Erectile response to 5V ganglionic stimulation after vasoconstrictor injected into cavernous sinuses; format: in vivo; conditions: for effect on erectile response to 5V ganglionic stimulation: METHOX 10 μg/kg or ET-1 50 pmol into cavernous sinuses
Procedure: Thus, FIGS. 8 and 9 show results where after an initial (5V) ganglionic stimulation (Cont), either the α-adrenergic agonist, Methoxamine (METHOX) (10 μg/kg) or endothelin-1 (ET-1) (50 pmol) was injected into the cavernous sinuses.

castrated rats = test: Erectile response to graded ganglionic stimulation in castrated rats; format: in vivo, rat; conditions: intracavernosal injection, 1-5 V
Description: Rats which have been rendered severely hypogonadal by surgical castration show a diminished erectile response.

SHRSP rats = test: Ganglionic-mediated ICP/MAP in stroke prone spontaneously hypertensive rats (SHRSP); format: in vivo, rat; conditions: 50 nmol/kg into left corpus cavernosum, 1-5 V
Description: (§2) In these experiments, male Sprague-Dawley rats (200-250 g; Harlan) were made DOCA-salt hypertensive by uninephrectomy and implantation of a deoxycorticosterone-acetate (DOCA) silastic pellet at the back of the neck. DOCA rats received saltwater (1% NaCl, 0.2% KCl) for 4 weeks. Sham control rats were uninephrectomized and drank tap water. Male stroke prone-spontaneously hypertensive rats (12 weeks old, 350 g) were obtained from the breeding colony at the Medical College of Georgia, Augusta, Ga. Systolic blood pressures were taken by tail cuff measurement (DOCA/sham: after 4 weeks treatment; SHRSP: at 12 weeks of age). Measurement of ICP/MAP was as described above. […] Subsequently, the ICP/MAP response to ganglionic stimulation was assessed over a range of voltages.

[5] = test system: animal model of hypertension; conditions: cited from earlier work
[6] = test system: DOCA-salt hypertensive rats; test: Ganglionic-mediated ICP/MAP in DOCA-salt hypertensive rats; format: in vivo, rat; conditions: 50 nmol/kg into left corpus cavernosum, 1-5 V
Description: as §2

[7] = male, rat, in vivo
Procedure: as §1

[8] = 200 μg/kg into cavernosal sinuses

## (+/−)-(E)-methyl-2-((E)-hydroxyimino)-5-nitro-6-methoxy-3-hexenamide [NOR-1]
Erectile tissue
  erectile response (increase in ICP/MAP): intermediate erectile response

## N=C(NCCC[C@H](N)C(=O)O)N[N+](=O)[O-] [L-NNA, N^ω-nitro-L-arginine]
Corpus cavernosum [1]; [8]
  effect on baseline CCP or MAP: did not alter CCP or MAP from baseline

## COC(=O)[C@@H](N)CCCNC(=N)N[N+](=O)[O-] [L-NAME, N^ω-nitro-L-arginine methyl ester]
[2]
  effect on relaxation response of cavernosal strips to 1 μM Y-27632: did not significantly alter
[2]; 10 μM, 15 min
  effect on PE-induced contraction: no effect
Corpus cavernosum [1]; 200 μg/kg into cavernosal sinuses, 5 V
  effect on increase in CCP/MAP induced by 5 V stimulation: significantly attenuated
Corpus cavernosum [1]; [8]
  effect on baseline CCP or MAP: did not alter CCP or MAP from baseline

## [Na+].[Na+].[Na+].[O]=[V]([O-])([O-])[O-] [SOV, sodium orthovanadate]
Corpus cavernosum [3]; 0.1 and 1 μmol/L SOV
  inhibition of erectile response: significant inhibition
Corpus cavernosum [3]; injected into corpus cavernosum immediately before stimulation
  effect on erectile response: inhibits the erectile response in a dose dependent manner

## O=c1onc2cnc3ccccc3n12 [ODQ, 1H-[1,2,4]oxadiozolo-[4,3-a]quinoxalin-1]
Corpus cavernosum [1]; ODQ 300-500 μg/kg intracavernosal, Y-27632 50-200 nmol/kg in continued presence of ODQ
  CCP/MAP at 5 V (mean ± s.e.m.): 0.50±0.07

## CN(C)c1ccc2nc3ccc(=[N+](C)C)cc-3sc2c1 [MB, methylene blue]
[2]
  effect on relaxation response of cavernosal strips to 1 μM Y-27632: did not significantly alter
Corpus cavernosum [1]; MB 300-500 μg/kg intracavernosal, Y-27632 50-200 nmol/kg in continued presence of MB
  CCP/MAP at 5 V (mean ± s.e.m.): 0.49±0.04

## CC(N)[C@H]1CC[C@H](C(=O)Nc2ccncc2)CC1 (single isomer, unassigned; (+)) [Y-27632, monohydrate]
[2]; Rattus norvegicus, read-out: IC50, relaxation of PE-induced tone
  IC50: 1000 nM
Corpus cavernosum [4]; 2.0-400 nmol/kg body weight in 2 μl saline into left corpus cavernosum sinuses, no stimulation
  increase in CCP/MAP: significant dose-dependent increase
Corpus cavernosum [4]; 2.0-400 nmol/kg intracavernosal
  time to plateau of CCP/MAP increase: about four
Corpus cavernosum [4]; range of 2.0-200 nmol/kg, independent of significant changes in MAP
  maximum increase in CCP/MAP over control: 74%
Rat aorta; 1 μmol/L prior to PE contraction, endothelium-denuded vessels
  vasodilator sensitivity to SNP: increased vasodialator sensitivity to SNP
Rat aorta; 1 μmol/L, endothelium denuded vessels
  inhibition of force generation to 10 μmol/L PE: completely ineffective
Rat aorta; 1 μmol/L, endothelium intact rings
  inhibition of force generation to 10 μmol/L PE: significant inhibition of force generation
Rat aorta; 1 μmol/L, endothelium intact, in presence of L-NNA (100 μmol/L) or ODQ (10 μmol/L)
  inhibition of contractile response to 10 μmol/L PE: significantly less effective
Rat aorta; 10 μmol/L or 100 μmol/L, endothelium denuded rings
  inhibition of contractile response to 10 μmol/L PE: concentration dependent inhibition
Erectile tissue
  erectile response (increase in ICP/MAP): cause an erectile response
Cultured cells
  smooth muscle relaxation: cause smooth muscle relaxation
Corpus cavernosum [1]; 50 nmol/kg after L-NAME, 5 V
  effect on attenuation of ganglionic-induced CCP/MAP increase by NOS inhibition: overcome
Corpus cavernosum [1]; 200 nmol/kg into cavernous sinuses, 0-5 V
  effect on CCP/MAP response to ganglionic stimulation: potentiated the CCP/MAP response to ganglionic stimulation at each voltage
Corpus cavernosum [1]; 200 nmol/kg, lowest stimulation voltages
  ganglionic-stimulated rise in CCP/MAP at lowest voltages: near maximal levels
Corpus cavernosum [1]; 2.0-200 nmol/kg, 5 V
  increase in ganglionic-stimulated CCP/MAP at 5 V: 21-38%
Cavernous sinuses; 50 nmol before ET-1 50 pmol, 5V
  effect on vasoconstrictor action of ET-1: vasoconstrictor effect was prevented
Cavernous sinuses; 50 nmol before METHOX 10 μg/kg, 5V
  effect on vasoconstrictor action of METHOX: vasoconstrictor effect was prevented
Castrated rats
  erectile response: restored to levels similar to those in age-matched intact animals
SHRSP rats
  erectile response (ICP/MAP): significantly increasing the erectile response
[5]
  smooth muscle relaxation: cause smooth muscle relaxation
[6]
  erectile response (ICP/MAP): elevating the erectile response to near normal levels
[7]
  dose at which MAP was significantly decreased: ≥ 400 nmol/kg

## endothelin-1 (CSCSSLMDKECVYFCHLDIIW; Endothelin-1; UniProt P05305 53-73, looked up) [ET-1, vasoconstrictor]
Cavernous sinuses
  effect on erectile response to 5V ganglionic stimulation: lowered the erectile response

## COc1ccc(OC)c(C(O)C(C)N)c1 (centres unmarked) [METHOX, Methoxamine]
Cavernous sinuses
  effect on erectile response to 5V ganglionic stimulation: lowered the erectile response
